Data: patent publication EP0429304A2, “Pyridone-carboxylic acid derivatives and their use as veterinary medicines” (SHIONOGI SEIYAKU KABUSHIKI KAISHA trading under the name of …, priority 1989, dated 1991)
Like-named read-outs stand apart in the source and are kept apart here.

Legend:
[1] = test system: Mycoplasma gallisepticum (MG) S6; test: In vitro sensitivity test (liquid dilution method); type: cell-based; settings: 37°C, 7 days
[2] = test system: Mycoplasma gallisepticum (MG) T-7-T, TS-resistant strain isolated from the field; test: In vitro sensitivity test (liquid dilution method); type: cell-based; settings: 37°C, 7 days
[3] = test system: Mycoplasma hyopneumoniae (Mh) ST-11; test: In vitro sensitivity test (liquid dilution method); type: cell-based; settings: 37°C, 7 days
[4] = test system: Mycoplasma synoviae (MS) 1853; test: In vitro sensitivity test (liquid dilution method); type: cell-based; settings: 37°C, 7 days
Summary of the method: (§1)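 Bacteria were of animal origin. MS strains were grown by liquid dilution in Frey medium with 12 % pig-serum and 0.01 % βNAD at 37°C for 7 days. S.au was tested by agar dilution on Mueller Hinton agar, 37°C for 20 to 24 hours. P.pis was grown on 1.5 % NaCl heart infusion agar at 25°C for 40 to 48 hours.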

[5] = test system: Mycoplasma synoviae (MS) F10-2as; test: In vitro sensitivity test (liquid dilution method); type: cell-based; settings: 37°C, 7 days
Summary of the method: as §1

[6] = test system: Bordetella bronchiseptica (B.br) ABU-1; test: In vitro sensitivity test (agar dilution method); type: cell-based; settings: 37°C, 20 to 24 hours
[7] = test system: Escherichia coli (E.coli) E-17, chicken-origin strain isolated from the field; test: In vitro sensitivity test (agar dilution method); type: cell-based; settings: 37°C, 20 to 24 hours
Summary of the method: (§2)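 Read-out is visual growth after incubation. Conditions were 37°C for 7 days in Frey medium (12 % pig-serum, 0.01 % βNAD; liquid dilution) for MS, and 37°C for 20 to 24 hours on Mueller Hinton agar for S.au. P.pis used 25°C, 40 to 48 hours, on 1.5 % NaCl heart infusion agar.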

[8] = test system: Escherichia coli (E.coli) JC-2; test: In vitro sensitivity test (agar dilution method); type: cell-based; settings: 37°C, 20 to 24 hours
[9] = test system: Hemophilus paragallinarum (H.pg) 221; test: In vitro sensitivity test (agar dilution method); type: cell-based; settings: agar dilution, 37°C, 20 hours, 10 % CO₂
[10] = test system: Hemophilus paragallinarum (H.pg) S-1; test: In vitro sensitivity test (agar dilution method); type: cell-based; settings: agar dilution, 37°C, 20 hours, 10 % CO₂
[11] = test system: Hemophilus pleuropneumonia (H.pp) M-1; test: In vitro sensitivity test (agar dilution method); type: cell-based; settings: 37°C, 20 hours, 10 % CO₂
[12] = test system: Salmonella typhimurium (S.typhi) 13311; test: In vitro sensitivity test (agar dilution method); type: cell-based; settings: 37°C, 20 to 24 hours
[13] = test system: Staphylococcus aureus (S.au) 209P; test: In vitro sensitivity test (agar dilution method); type: cell-based; settings: 37°C, 20 to 24 hours
Summary of the method: as §2

[14] = test system: Pasteurella piscicida (P.pis) No. 2; test: In vitro sensitivity test; type: cell-based; settings: 25°C, 40 to 48 hours
Summary of the method: as §1

[15] = test system: Streptococcus sp (Str.sp) SNO6119; test: In vitro sensitivity test; type: cell-based; settings: 25°C, 40 to 48 hours
[16] = test system: TS-resistant strain of MG; type: in vivo, chicken; settings: 9-days chicken; for Infectious index Left air sack + / Infectious index Left air sack ++ / Infectious index Left air sack +++ / Infectious index Left air sack - / Infectious index Right air sack + / Infectious index Right air sack ++ / Infectious index Right air sack +++ / Infectious index Right air sack -: count of fowl; for Infectious index Left air sack + / Infectious index Left air sack ++ / Infectious index Left air sack +++ / Infectious index Left air sack - / Infectious index Right air sack + / Infectious index Right air sack ++ / Infectious index Right air sack +++ / Infectious index Right air sack - / Number of fowl having air sack lesions: 1.7 x 10³ CFU/fowl; for Number of infected fowl/Number of fowl tested: 3.5 x 10³ CFU/fowl
TS-resistant MG = test: Experimental MG infection to chicken, through bait; type: in vivo; settings: 9-days chicken; for Number of infected fowl/Number of fowl tested: 6.6 x 10³ CFU/fowl, dissection 6th day after inoculation; for Number of fowl having air sack lesions / Infectious index Left air sack + / Infectious index Left air sack ++ / Infectious index Left air sack +++ / Infectious index Left air sack - / Infectious index Right air sack + / Infectious index Right air sack ++ / Infectious index Right air sack +++ / Infectious index Right air sack -: 1.8 x 10³ CFU/fowl; for Infectious index Left air sack + / Infectious index Left air sack ++ / Infectious index Left air sack +++ / Infectious index Left air sack - / Infectious index Right air sack + / Infectious index Right air sack ++ / Infectious index Right air sack +++ / Infectious index Right air sack -: count of fowl

## Cl.Nc1c(F)c(N2C[C@@H]3CC[C@@H](N)[C@@H]3C2)c(F)c2c1c(=O)c(C(=O)O)cn2C1CC1 (relative stereo) [I-16]
[1]
  In vitro Sensitivity Test MG S6: <0.0313 µg/mL
[2]
  In vitro Sensitivity Test MG T-7-T: 0.00313 µg/mL
[3]
  In vitro Sensitivity Test Mh ST-11: <0.025 µg/mL
[4]
  In vitro Sensitivity Test MS 1853: 0.39 µg/mL
[5]
  In vitro Sensitivity Test MS F10-2as: 0.2 µg/ml
[6]
  In vitro Sensitivity Test B.br ABU-1: 1.56 µg/mL
[7]
  In vitro Sensitivity Test E.coli E-17: 0.025 µg/ml
[8]
  In vitro Sensitivity Test E.coli JC-2: 0.05 µg/mL
[9]
  In vitro Sensitivity Test H.pg 221: 0.2 µg/mL
[10]
  In vitro Sensitivity Test H.pg S-1: 0.2 µg/mL
[11]
  In vitro Sensitivity Test H.pp M-1: 0.2 µg/mL
[12]
  In vitro Sensitivity Test S.typhi 13311: 0.05 µg/mL
[13]
  In vitro Sensitivity Test S.au 209P: 0.025 µg/mL
[14]
  In vitro Sensitivity Test P.pis No. 2: 0.39 µg/mL
[15]
  In vitro Sensitivity Test Str.sp SNO6119: 0.39 µg/mL
[16]; oral 6.25 mg/kg
  Infectious index Left air sack +: 0
  Infectious index Left air sack ++: 0
  Infectious index Left air sack +++: 0
  Infectious index Left air sack -: 4
  Infectious index Right air sack +: 0
  Infectious index Right air sack ++: 3
  Infectious index Right air sack +++: 0
  Infectious index Right air sack -: 1
  Number of fowl having air sack lesions: 3
  Number of infected fowl/Number of fowl tested: 2/5
[16]; oral 12.5 mg/kg
  Infectious index Left air sack +: 0
  Infectious index Left air sack ++: 0
  Infectious index Left air sack +++: 0
  Infectious index Left air sack -: 5
  Infectious index Right air sack +: 0
  Infectious index Right air sack ++: 0
  Infectious index Right air sack +++: 0
  Infectious index Right air sack -: 5
  Number of fowl having air sack lesions: 0
[16]; oral 25.0 mg/kg
  Infectious index Left air sack +: 0
  Infectious index Left air sack ++: 0
  Infectious index Left air sack +++: 0
  Infectious index Left air sack -: 5
  Infectious index Right air sack +: 0
  Infectious index Right air sack ++: 0
  Infectious index Right air sack +++: 0
  Infectious index Right air sack -: 5
  Number of fowl having air sack lesions: 0
[16]; oral 1.56 mg/kg
  Number of infected fowl/Number of fowl tested: 5/5
[16]; oral 3.13 mg/kg
  Number of infected fowl/Number of fowl tested: 2/5
TS-resistant MG; bait 3.13 ppm/Day
  Number of infected fowl/Number of fowl tested: 2/7
TS-resistant MG; bait 15.6 ppm/Day
  Number of fowl having air sack lesions: 3
  Infectious index Left air sack +: 0
  Infectious index Left air sack ++: 0
  Infectious index Left air sack +++: 0
  Infectious index Left air sack -: 5
  Infectious index Right air sack +: 1
  Infectious index Right air sack ++: 2
  Infectious index Right air sack +++: 0
  Infectious index Right air sack -: 2
TS-resistant MG; bait 31.3 ppm/Day
  Number of fowl having air sack lesions: 3
  Infectious index Left air sack +: 0
  Infectious index Left air sack ++: 0
  Infectious index Left air sack +++: 0
  Infectious index Left air sack -: 5
  Infectious index Right air sack +: 1
  Infectious index Right air sack ++: 2
  Infectious index Right air sack +++: 0
  Infectious index Right air sack -: 2
TS-resistant MG; bait 62.5 ppm/Day
  Number of fowl having air sack lesions: 0
  Number of infected fowl/Number of fowl tested: 0/7
  Infectious index Left air sack +: 0
  Infectious index Left air sack ++: 0
  Infectious index Left air sack +++: 0
  Infectious index Left air sack -: 5
  Infectious index Right air sack +: 0
  Infectious index Right air sack ++: 0
  Infectious index Right air sack +++: 0
  Infectious index Right air sack -: 5
TS-resistant MG; bait 125 ppm/Day
  Number of infected fowl/Number of fowl tested: 0/7
